For 22 compounds, IC50 results are on record in patent US20230365563A1, “QUINAZOLINE COMPOUND AND APPLICATION THEREOF” (SHANGHAI PHARMACEUTICALS HOLDING CO., LTD., priority 2020, published 2023).

Counter-ions that a name gives are not always drawn.

T1 sequence (P01116 1-188 isoform P01116-2 G12D): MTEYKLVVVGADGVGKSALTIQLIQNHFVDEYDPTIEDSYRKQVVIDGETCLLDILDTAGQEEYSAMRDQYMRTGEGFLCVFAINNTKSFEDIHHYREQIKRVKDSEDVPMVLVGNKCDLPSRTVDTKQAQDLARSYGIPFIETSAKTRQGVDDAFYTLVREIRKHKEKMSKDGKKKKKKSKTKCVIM

This assay has as its target T1, KRAS-G12D and SOS1 (Homo sapiens, UniProt P01116, G12D).
T1 construct: purchased
Briefly: Inhibition of KRAS-G12D/SOS1 binding (Cisbio binding kit, 665/615 ratio), Effect Embodiment A. The following applies: read-out: GTP-KRAS-G12D:SOS1 IC50. The protocol:
Similarly, the first dilution point of the compound to be tested was its storage solution, and the solution was 3-fold diluted, with 11+0 points of dilution. Echo was used to transfer 0.2 μL gradient diluted solution of the compounds into a 384-well plate, with 2 duplicated wells for each compound, and the final concentration of DMSO was 1%. The solution was centrifuged for 1 min at 1000 rpm/min.
IC50 of the compounds was fitted by Graphpad Prism 8 nonlinear regression equation: […]
The IC50 (half inhibitory concentration) of the compound was obtained by using the following nonlinear fitting formula: […]
Regarding `Oc1cc(-c2ncc3c(N4C[C@H]5CC[C@@H](C4)N5)nc(OCCc4ccccn4)nc3c2F)c2ccccc2c1` [Compound 138, 4-(4-((1R,5S)-3,8-diazabicyclo[3.2.1]octan-3-yl)-8-fluoro-2-(2-(pyridin-2-yl)ethoxy)pyridyl[4,3-d]pyrimidin-7-yl)naphthalen-2-ol trifluoroacetate], the IC50 was determined as 108 nM.

As for `C#Cc1cccc2cc(O)cc(-c3c(F)cc4c(N5CC6CCC(C5)N6)nc(OCCCN5C6CCC5COC6)nc4c3F)c12` (single isomer, unassigned) [Compound 273b, 4-((7R or 7S)-2-(3-(3-oxa-8-azabicyclo[3.2.1]octan-8-yl)propoxy)-4-((1R,5S)-3,8-diazabicyclo[3.2.1]octan-3-yl)-6,8-difluoroquinazolin-7-yl)-5-ethynylnaphthalen-2-ol diformate], the IC50 was determined as 1850 nM.

Consider `N=[S+]1([O-])CC2CCC(C1)N2CCCOc1nc(N2CC3CCC(C2)N3)c2cc(Cl)c(-c3cc(O)cc4ccccc34)c(F)c2n1` (single isomer, unassigned) [Compound 213a, (1R,3S or 3R,5S)-8-(3-((4-((1R,5S)-3,8-diazabicyclo[3.2.1]octan-3-yl)-6-chloro-8-fluoro-7-(3-hydroxynaphthalen-1-yl)quinazolin-2-yl)oxy)propyl)-3-imino-3λ^6-thia-8-azabicyclo[3.2.1]octane 3-oxide formate], for which the half-inhibitory concentration (IC50) was 514 nM. Regarding `CN(C)CCCCOc1nc(N2CC3CCC(C2)N3)c2cc(Cl)c(-c3cc(O)cc4ccccc34)c(F)c2n1` (single isomer, unassigned) [Compound 60b, 4-((R or S)-4-((1R,5S)-3,8-diazabicyclo[3.2.1]octan-3-yl)-6-chloro-2-(4-(dimethylamino)butoxy)-8-fluoroquinazolin-7-yl)naphthalen-2-ol], the IC50 worked out at 72400 nM. Then `CN1CC(F)(F)C[C@H]1COc1nc(N2CC3CCC(C2)N3)c2cnc(-c3cc(O)cc4ccccc34)c(F)c2n1` [Compound 135, 4-(4-((1R,5S)-3,8-diazabicyclo[3.2.1]octan-3-yl)-2-((S)-4,4-difluoro-1-methylpyrrolidin-2-yl)methoxy)-8-fluoropyridinyl[4,3-d]pyrimidin-7-yl)naphthalen-2-ol formate], with 133 nM; and `CCc1c(F)ccc2cc(O)cc(-c3c(F)cc4c(N5CC6CCC(C5)N6)nc(OCCCN5C6CCC5COC6)nc4c3F)c12` (single isomer, unassigned) [Compound 215b, 4-((7R or 7S)-2-(3-(3-oxa-8-azabicyclo[3.2.1]octan-8-yl)propoxy)-4-((1R,5S)-3,8-diazabicyclo[3.2.1]octan-3-yl)-6,8-difluoroquinazolin-7-yl)-5-ethyl-6-fluoronaphthalen-2-ol diformate], with 1580 nM; and `Oc1cc(-c2c(Cl)cc3c(N4CC5CCC(C4)N5)nc(OCC(CN4C5CCC4COC5)C(F)(F)F)nc3c2F)c2ccccc2c1` (single isomer, unassigned) [Compound 218b, 4-((7S or 7R)-2-((2R or 2S)-2-((3-oxa-8-azabicyclo[3.2.1]octan-8-yl)methyl)-3,3,3-trifluoropropoxy)-4-((1R,5S)-3,8-diazabicyclo[3.2.1]octan-3-yl)-6-chloro-8-fluoroquinazolin-7-yl)naphthalen-2-ol formate], with 250 nM. Then `CCCN(C)CCOc1nc(N2C[C@H]3CC[C@@H](C2)N3)c2cc(Cl)c(-c3cc(O)cc4ccccc34)c(F)c2n1` (single isomer, unassigned) [Compound 126, (S or R)-4-(4-((1R,5S)-3,8-diazabicyclo[3.2.1]octan-3-yl)-6-chloro-8-fluoro-2-(2-(methyl(propyl)amino)ethoxy)quinazolin-7-yl)naphthalen-2-ol dihydrochloride], with 134 nM; and `CN(C)C1CN(c2nc(N3CC4CCC(C3)N4)c3cc(Cl)c(-c4cccc5ccccc45)c(F)c3n2)C1` (single isomer, unassigned) [Compound 42b, -((R or S)-4-((1R,5S)-3,8-diazabicyclo[3.2.1]octan-3-yl)-6-chloro-8-fluoro-7-(naphthalen-1-yl)quinazolin-2-yl)-N,N-dimethylazetidin-3-amine], with 6470 nM; and `CNCCN(C)c1nc(N2CC(N(C)C)C2)nc2c(F)c(-c3cc(O)cc4ccccc34)c(Cl)cc12` (single isomer, unassigned) [Compound 16b, (S or R)-4-(6-chloro-2-(3-(dimethylamino)azetidin-1-yl)-8-fluoro-4-(methyl(2-(methylamino)ethyl)amino)quinazolin-7-yl)naphthalen-2-ol], with 83400 nM. Then `CN(C)C1CN(c2nc(N3CC4CCC(C3)N4)c3cc(Cl)c(-c4cc(O)cc5cccnc45)c(F)c3n2)C1` (single isomer, unassigned) [Compound 45a, 8-((S or R)-4-((1R,5S)-3,8-diazabicyclo[3.2.1]octan-3-yl)-6-chloro-2-(3-(dimethylamino)azetidin-1-yl)-8-fluoroquinazolin-7-yl)quinolin-6-o1], with 1260 nM; and `CN1CCC[C@H]1COc1nc(N2CC3CCC(C2)N3C(=O)CN)c2cc(Cl)c(-c3cc(O)cc4ccccc34)c(F)c2n1` (single isomer, unassigned) [Compound 156, 2-Amino-1-((1R,5S)-3-((S or R)-6-chloro-8-fluoro-7-(3-hydroxynaphthalen-1-yl)-2-((S)-1-methylpyrrolidin-2-yl)methoxy)quinazin-4-yl)-3,8-diazacyclo[3.2.1]octan-8-yl)ethan-1-one dihydrochloride], with 621 nM.

As for `CN(C)C1CN(c2nc(N3CC(N(C)C)C3)c3cc(Cl)c(-c4cc(O)cc5ccccc45)c(F)c3n2)C1` (single isomer, unassigned) [Compound 9b, (S or R)-4-(6-chloro-2,4-bis(3-(dimethylamino)azetidin-1-yl)-8-fluoro-7-yl)naphthalen-2-ol], the IC50 is more than 200000 nM.

On to `N#Cc1cccc2cc(O)cc(-c3c(F)cc4c(N5CC6CCC(C5)N6)nc(OCCCN5C6CCC5COC6)nc4c3F)c12` (single isomer, unassigned) [Compound 278b, 8-((7R or 7S)-2-(3-(3-oxa-8-azabicyclo[3.2.1]octan-8-yl)propoxy)-4-((1R,5S)-3,8-diazabicyclo[3.2.1]octan-3-yl)-6,8-difluoroquinazolin-7-yl)-6-hydroxy-1-naphthonitrile diformate], for which the IC50 came to 2480 nM. Then `CN(C)C1CN(c2nc(C3CCNCC3)c3cc(Cl)c(-c4cc(O)cc5ccccc45)c(F)c3n2)C1` [Compound 20a, (R or S)-4-(6-chloro-2-(3-(dimethylamino)azetidin-1l-yl)-8-fluoro-4-(piperidin-4-yl)quninazolin-7-yl)naphthalen-2-ol], with 4800 nM. Then `CN(C)CCCSc1nc(N2C[C@H]3CC[C@@H](C2)N3)c2cc(Cl)c(-c3cc(O)cc4ccccc34)c(F)c2n1` (single isomer, unassigned) [Compound 147, (S or R) 4-(4-((1R,5S)-3,8-diazabicyclo[3.2.1]octan-3-yl)-6-chloro-2-((3-(dimethylamino)propyl)thio)-8-fluoroquinazolin-7-yl)naphthalen-2-ol dihydrochloride], with 605 nM; and `CN1CCC[C@H]1COc1nc(N2CCN(C(=O)CCN)[C@@H](CC#N)C2)c2cc(Cl)c(-c3cc(O)cc4ccccc34)c(F)c2n1` (single isomer, unassigned) [Compound 157, 2-((S)-1-(3-aminopropionyl)-4-((S or R)-6-chloro-8-fluoro-7-(3-hydroxynaphthalen-1-yl)-2-((S)-1-methylpyrrolidine-2-yl)methoxy)quinazolin-4-yl)-piperazin-2-yl)acetonitrile ditrifluoroacetate], with 316 nM; and `CN1CCN(c2nc(N3CC4CCC(C3)N4)c3cc(Cl)c(-c4cc(O)cc5ccccc45)c(F)c3n2)CC1` (single isomer, unassigned) [Compound 52b, 4-((R or S)-4-((1R,5S)-3,8-diazabicyclo[3.2.1]octan-3-yl)-6-chloro-8-fluoro-2-(4-methylpiperazin-1-yl)quinazolin-7-yl)naphthalen-2-ol], with 73900 nM. Regarding `CCCN(C)CC1(COc2nc(N3C[C@H]4CC[C@@H](C3)N4)c3cc(Cl)c(-c4cc(O)cc5ccccc45)c(F)c3n2)CC1` (single isomer, unassigned) [Compound 185, (R or S)-4-(4-((1R,5S)-3,8-diazabicyclo[3.2.1]octan-3-yl)-6-chloro-8-fluoro-2-((1-((methyl(propyl)amino)methyl)cyclopropyl)methoxy)quinazolin-7-yl)naphthalen-2-ol diformate], the IC50 amounted to 387 nM. Consider `CCN(CC)CCCOc1nc(N2CC3CCC(C2)N3)c2cc(Cl)c(-c3cc(O)cc4ccccc34)c(F)c2n1` (single isomer, unassigned) [Compound 53b, 4-((R or S)-4-((1R,5,S)-3,8-diazabicyclo[3.2.1]octan-3-yl)-6-chloro-2-(3-(diethylamino)propoxy)-8-fluoroquinazolin-7-yl)naphthalen-2-ol], for which the IC50 is 2290 nM. Then `CN(C)C1CN(c2nc(NCC(=N)N)c3cc(Cl)c(-c4cc(O)cc5ccccc45)c(F)c3n2)C1` (single isomer, unassigned) [Compound 76, (S or R)-2-((6-chloro-2-(3-(dimethylamino)azetidin-1-yl)-8-fluoro-7-(3-hydroxynaphthalen-1-yl)quinazolin-4-yl)amino)acetimidamide diformate], with 8960 nM. Consider `CN1CCC[C@H]1COc1nc(N2CC3CCC(C2)N3)c2cc(Cl)c(-c3cc(O)cc4ccccc34)c(F)c2n1` (single isomer, unassigned) [Compound 39b, (R or S)-4-(4-((1R,5S)-3,8-diazabicyclo[3.2.1]octan-3-yl)-6-chloro-8-fluoro-2-((S)-1-methylpyrrolidin-2-yl)methoxy)quinazolin-7-yl)naphthalen-2-ol], for which the IC50 was 17700 nM.

In general, IC50 refers to the midpoint of a concentration-inhibition curve.
